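How tested: cells in 96-well plates exposed to compound for 48 hours at five concentrations. At the TGI there is no net growth.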

The record followed here is PubChem BioAssay (NCI).

The first test relates to MCF7 breast. Kind of test: growth of human tumour cells (NCI), 48 h.
`C=C(CCOC)CCC1CCCCC(CN(C)C)C1=O` (centres undefined) registered a TGI above 100 µM.

Compound `ONC1=Nc2cc(Cl)ccc2C(=S)N2CSCC12` (centres undefined) had a TGI above 100 µM.

In turn, `COc1ccc(/C=C2\N=C(N3CCCCC3)NC2=O)cc1` returned a TGI above 100 µM.

The compound `COc1c(=O)cc2cc[nH]c3cc[nH]c1c23` displayed a TGI of 92.6 µM.

Compound `CCCCC1(NN=C2CCCCC2)C(=O)N(c2ccccc2)N(c2ccccc2)C1=O` came in with a TGI above 100 µM.

Consider `CC(C)NC(=O)OCc1c2c(n(C)c1COC(=O)NC(C)C)-c1cc(Cl)c(Cl)cc1CC2`, for which the TGI was found to be 45.2 µM.

The compound `CNc1ncccc1Nc1cc(=O)n2c3cccnc3n(C)c2c1` had a TGI above 100 µM.

Compound `COc1cc2c(cc1O)c(O)cc1c3cc(OC)c(OC)cc3c[n+](C)c21` had a TGI above 100 µM.

Compound `CCOC(=O)c1sc(=S)n(-c2ccc(Cl)cc2)c1-n1cc(-c2ccccc2)c(C#N)c1N` yielded a TGI above 100 µM.

Regarding `COC1(OC)N=C(N)C2(C#N)C(c3ccccc3)NC3=C(CCC3)C12C#N` (centres undefined), the TGI was above 100 µM.

Take `NC(N)=NS(=O)(=O)c1ccc(NNc2c3ccccc3nc3ccccc23)cc1`: the TGI amounted to 16.8 µM.

`COC(=O)[C@@H]1C[C@H]2OC(=O)CC[C@]2(C)O[C@H]1[C@H]1O[C@@](C)(O)CCC[C@H]1C` had a TGI above 50 µM.

`CC(C)CCNC(=O)c1ccc(CNC(=O)/C=C/c2cccc(Oc3ccccc3)c2)cc1` registered a TGI above 100 µM.

For the compound `COc1cc2c(cc1OCCCCCCCCCCN1C(=O)c3cccc4cccc(c34)C1=O)N=C[C@@H]1CCCN1C2=O`, the TGI amounted to 9.26 µM.

The compound `O=C(NC1=C(Cl)C(=O)c2ccccc2C1=O)c1ccccc1` gave a TGI of 39.2 µM.

`C/C(=N\NS(=O)(=O)c1ccc(C)cc1)c1ccccn1` came in with a TGI above 100 µM.

The compound `Cc1c(N2C(=O)C(Cl)C2/C=C/c2ccccc2)c(=O)n(-c2ccccc2)n1C` (centres undefined) came in with a TGI of 87.5 µM.

For the compound `C=CCn1c(N)c(C#N)c(C#N)c1CCC`, the TGI is above 100 µM.

Regarding `C#CCn1c(=O)c(I)cn(/C(=C/C(=O)OCC)C(=O)OCC)c1=O`, the TGI was 6.16 µM.

With `COc1ccc(CC2COc3cc(OC)cc(OC)c3C2=O)cc1` (centres undefined), the TGI is above 100 µM.

Compound `O=c1oc2ccccc2c(Nc2ccc3c(c2)Sc2ccccc2O3)c1[N+](=O)[O-]` yielded a TGI of 43 µM.

The next test concerns A549 NSCLC. As to the kind of experiment: growth of human tumour cells (NCI), 48 h.
`Clc1ccc(CCN(CCc2ccc(Cl)c(Cl)c2)CCN2CCCC2)cc1Cl` had a TGI of 3.15 µM.

`Cc1c(-c2ccccc2)cc(O)c2nc3ccccc3n12`: the TGI was above 100 µM.

The compound `Cc1ccc(C(=O)O)c(/C=C2\Cc3ccc(C)cc3C2=O)c1` gave a TGI above 100 µM.

`C=C(CCOC)CCC1CCCCC(CN(C)C)C1=O` (centres undefined) registered a TGI above 100 µM.

`ONC1=Nc2cc(Cl)ccc2C(=S)N2CSCC12` (centres undefined) yielded a TGI above 100 µM.

On to `COc1ccc(/C=C2\N=C(N3CCCCC3)NC2=O)cc1`, for which the TGI was above 100 µM.

Compound `COc1c(=O)cc2cc[nH]c3cc[nH]c1c23` returned a TGI above 100 µM.

As for `CCCCC1(NN=C2CCCCC2)C(=O)N(c2ccccc2)N(c2ccccc2)C1=O`, the TGI was above 100 µM.

Regarding `CC(C)NC(=O)OCc1c2c(n(C)c1COC(=O)NC(C)C)-c1cc(Cl)c(Cl)cc1CC2`, the TGI is above 100 µM.

`CNc1ncccc1Nc1cc(=O)n2c3cccnc3n(C)c2c1` gave a TGI above 100 µM.

For `COc1cc2c(cc1O)c(O)cc1c3cc(OC)c(OC)cc3c[n+](C)c21`, the TGI was above 100 µM.

Regarding `CCOC(=O)c1sc(=S)n(-c2ccc(Cl)cc2)c1-n1cc(-c2ccccc2)c(C#N)c1N`, the TGI came out at 42.4 µM.

Turning to `COC1(OC)N=C(N)C2(C#N)C(c3ccccc3)NC3=C(CCC3)C12C#N` (centres undefined), the TGI was above 100 µM.

In turn, `NC(N)=NS(=O)(=O)c1ccc(NNc2c3ccccc3nc3ccccc23)cc1` returned a TGI of 45.4 µM.

The compound `COC(=O)[C@@H]1C[C@H]2OC(=O)CC[C@]2(C)O[C@H]1[C@H]1O[C@@](C)(O)CCC[C@H]1C` had a TGI above 50 µM.

`CC(C)CCNC(=O)c1ccc(CNC(=O)/C=C/c2cccc(Oc3ccccc3)c2)cc1` registered a TGI above 100 µM.

The compound `COc1cc2c(cc1OCCCCCCCCCCN1C(=O)c3cccc4cccc(c34)C1=O)N=C[C@@H]1CCCN1C2=O` had a TGI of 82.4 µM.

Consider `O=C(NC1=C(Cl)C(=O)c2ccccc2C1=O)c1ccccc1`, for which the TGI is above 100 µM.

Consider `C/C(=N\NS(=O)(=O)c1ccc(C)cc1)c1ccccn1`, for which the TGI was above 100 µM.

Turning to `Cc1c(N2C(=O)C(Cl)C2/C=C/c2ccccc2)c(=O)n(-c2ccccc2)n1C` (centres undefined), the TGI amounted to 86.9 µM.

Take `C=CCn1c(N)c(C#N)c(C#N)c1CCC`: the TGI is above 100 µM.

`C#CCn1c(=O)c(I)cn(/C(=C/C(=O)OCC)C(=O)OCC)c1=O` displayed a TGI of 36 µM.

The compound `COc1ccc(CC2COc3cc(OC)cc(OC)c3C2=O)cc1` (centres undefined) displayed a TGI above 100 µM.

For `O=c1oc2ccccc2c(Nc2ccc3c(c2)Sc2ccccc2O3)c1[N+](=O)[O-]`, the TGI is above 100 µM.

The next test has as its system BT-549 breast. Kind of test: growth of human tumour cells (NCI), 48 h.
Consider `Clc1ccc(CCN(CCc2ccc(Cl)c(Cl)c2)CCN2CCCC2)cc1Cl`, for which the TGI came to 3.65 µM.

For `Cc1c(-c2ccccc2)cc(O)c2nc3ccccc3n12`, the TGI was above 100 µM.

Consider `Cc1ccc(C(=O)O)c(/C=C2\Cc3ccc(C)cc3C2=O)c1`, for which the TGI is above 100 µM.

`C=C(CCOC)CCC1CCCCC(CN(C)C)C1=O` (centres undefined): the TGI was above 100 µM.

The compound `ONC1=Nc2cc(Cl)ccc2C(=S)N2CSCC12` (centres undefined) returned a TGI above 100 µM.

In turn, `COc1ccc(/C=C2\N=C(N3CCCCC3)NC2=O)cc1` returned a TGI above 100 µM.

In turn, `COc1c(=O)cc2cc[nH]c3cc[nH]c1c23` gave a TGI above 100 µM.

For the compound `CCCCC1(NN=C2CCCCC2)C(=O)N(c2ccccc2)N(c2ccccc2)C1=O`, the TGI is above 100 µM.

Turning to `CC(C)NC(=O)OCc1c2c(n(C)c1COC(=O)NC(C)C)-c1cc(Cl)c(Cl)cc1CC2`, the TGI is above 100 µM.

In turn, `CNc1ncccc1Nc1cc(=O)n2c3cccnc3n(C)c2c1` yielded a TGI above 100 µM.

In turn, `COc1cc2c(cc1O)c(O)cc1c3cc(OC)c(OC)cc3c[n+](C)c21` showed a TGI above 100 µM.

Take `CCOC(=O)c1sc(=S)n(-c2ccc(Cl)cc2)c1-n1cc(-c2ccccc2)c(C#N)c1N`: the TGI was 48.1 µM.

In the case of `COC1(OC)N=C(N)C2(C#N)C(c3ccccc3)NC3=C(CCC3)C12C#N` (centres undefined), the TGI was above 100 µM.

With `NC(N)=NS(=O)(=O)c1ccc(NNc2c3ccccc3nc3ccccc23)cc1`, the TGI came out at 28.5 µM.

Compound `COC(=O)[C@@H]1C[C@H]2OC(=O)CC[C@]2(C)O[C@H]1[C@H]1O[C@@](C)(O)CCC[C@H]1C` returned a TGI above 50 µM.

On to `CC(C)CCNC(=O)c1ccc(CNC(=O)/C=C/c2cccc(Oc3ccccc3)c2)cc1`, for which the TGI is above 100 µM.

`COc1cc2c(cc1OCCCCCCCCCCN1C(=O)c3cccc4cccc(c34)C1=O)N=C[C@@H]1CCCN1C2=O`: the TGI came to 20.9 µM.

`O=C(NC1=C(Cl)C(=O)c2ccccc2C1=O)c1ccccc1` yielded a TGI of 44.4 µM.

`C/C(=N\NS(=O)(=O)c1ccc(C)cc1)c1ccccn1` came in with a TGI above 100 µM.

`Cc1c(N2C(=O)C(Cl)C2/C=C/c2ccccc2)c(=O)n(-c2ccccc2)n1C` (centres undefined): the TGI was above 100 µM.

Consider `C=CCn1c(N)c(C#N)c(C#N)c1CCC`, for which the TGI is above 100 µM.

As for `C#CCn1c(=O)c(I)cn(/C(=C/C(=O)OCC)C(=O)OCC)c1=O`, the TGI amounted to 26.2 µM.

As for `COc1ccc(CC2COc3cc(OC)cc(OC)c3C2=O)cc1` (centres undefined), the TGI was above 100 µM.

Take `O=c1oc2ccccc2c(Nc2ccc3c(c2)Sc2ccccc2O3)c1[N+](=O)[O-]`: the TGI is 85.4 µM.
